Source: patent US20060069084A1, “Methods of inhibiting kinases” (priority 2001, published 2006)

How the values were obtained:
Format in all cases: biochemical
Details in all cases: Table 6; inhibit 50% of activity at 50 μM
JAK3 = target: T1, JAK3 (Homo sapiens, UniProt P52333); test: JAK3 kinase domain capture-based ELISA kinase assay
T1 construct: The kinase domain of humanJAK3 was amplified from U937mRNA; His tag (from pFastBac HTb vector; nickel chelate purification) (N); made in house; host or cells: baculovirus; virus made in Sf9, large-scale expression in High Five insect cells
T1 sequence (P52333 822-1111 limits assumed): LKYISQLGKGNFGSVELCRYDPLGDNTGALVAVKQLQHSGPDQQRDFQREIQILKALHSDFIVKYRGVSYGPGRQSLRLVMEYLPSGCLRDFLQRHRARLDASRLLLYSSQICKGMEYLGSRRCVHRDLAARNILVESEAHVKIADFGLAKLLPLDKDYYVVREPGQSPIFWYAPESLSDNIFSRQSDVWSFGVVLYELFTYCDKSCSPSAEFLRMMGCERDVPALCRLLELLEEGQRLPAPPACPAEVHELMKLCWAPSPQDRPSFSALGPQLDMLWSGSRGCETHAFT
Procedure: (§1) For screening purposes, compounds were diluted in 96 well plates at a concentration of 50 μM or 20 μM. Plates were warmed at 37° C. for 30 minutes before assay.
The kinase domain of humanJAK3 was amplified from U937mRNA using the polymerase chain reaction with the following primers: […]
JAK3 PCR products were cloned into the pFastBac HTb expression vector (Gibco) via the Xho I and Kpn I sites. The JAK3 plasmid was then transformed into competent DH10Bac cells (Gibco), and the recombinant baculovirus produced prepared for transfection into Sf9 insect cells.
(§2) Baculovirus preparations from each of the JAK family members were infected into five litres of High Five cells (Invitrogen) grown in High Five serum free medium (Invitrogen) to a cell density of approximately 1-2×10^6 cells/ml. Cells are infected with virus at a MOI of 0.8-3.0. Cells were harvested and lysed. JAK kinase domains were purified by affinity chromatography on a Probond (Invitrogen) nickel chelate affinity column.
(§3) The biotinylated substrate biotin-EGPWLEEEEEAYGWMDF-NH2 (SEQ ID NO:9) (final concentration 5 μM) was used as substrate, and tyrosine phosphorylation was quantitated following transfer to an avidin coated ELISA plate using peroxidase-linked anti-phospho-tyrosine antibody PY20.
(§4) Inhibitors were added to the assays fifteen minutes prior to the addition of ATP. Inhibitors were added in aqueous DMSO, with DMSO concentrations never exceeding 1%.

JAK2 = target: T2, JAK2 (Homo sapiens, UniProt O60674); test: JAK2 kinase domain capture-based ELISA kinase assay
T2 construct: The kinase domain of humanJAK2 was amplified from U937mRNA; His tag (from pFastBac HTc vector; nickel chelate purification) (N); made in house; host or cells: baculovirus; virus made in Sf9, large-scale expression in High Five insect cells
T2 sequence (O60674 849-1124 limits assumed): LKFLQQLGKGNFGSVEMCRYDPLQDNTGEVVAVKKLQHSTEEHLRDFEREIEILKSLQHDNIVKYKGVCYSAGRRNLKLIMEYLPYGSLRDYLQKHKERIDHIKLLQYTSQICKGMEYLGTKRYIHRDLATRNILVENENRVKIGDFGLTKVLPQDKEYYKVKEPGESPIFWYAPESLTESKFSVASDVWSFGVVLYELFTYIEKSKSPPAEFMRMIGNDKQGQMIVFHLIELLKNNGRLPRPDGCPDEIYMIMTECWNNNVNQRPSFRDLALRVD
Procedure: as §1
The kinase domain of humanJAK2 was amplified from U937mRNA using the polymerase chain reaction with the following primers: […]
JAK2 PCR products were cloned into the pFastBac HTc expression vector (Gibco) via the Sal I and Not I sites. The JAK2 plasmid was then transformed into competent DH10Bac cells (Gibco), and the recombinant baculovirus produced prepared for transfection into Sf9 insect cells.
as §2, §3, §4

TYK2 = target: T3, TYK2 (Homo sapiens, UniProt P29597); test: TYK2 kinase domain capture-based ELISA kinase assay
T3 construct: The kinase domain of humanTYK2 was amplified from A549 mRNA; His tag (from pBlueBacHis2A vector; nickel chelate purification) (N); made in house; host or cells: baculovirus; virus made in Sf9, large-scale expression in High Five insect cells
T3 sequence (P29597 897-1176 limits assumed): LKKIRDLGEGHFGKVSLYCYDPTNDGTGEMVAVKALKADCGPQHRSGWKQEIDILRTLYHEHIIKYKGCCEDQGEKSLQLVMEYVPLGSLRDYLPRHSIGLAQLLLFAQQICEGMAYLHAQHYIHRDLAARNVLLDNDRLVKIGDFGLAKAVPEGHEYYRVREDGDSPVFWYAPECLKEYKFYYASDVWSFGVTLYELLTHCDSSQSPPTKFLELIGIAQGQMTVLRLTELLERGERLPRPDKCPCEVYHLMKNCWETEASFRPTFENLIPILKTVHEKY
Procedure: as §1
The kinase domain of humanTYK2 was amplified from A549 mRNA using the polymerase chain reaction with the following primers: […]
TYK2 PCR products were cloned into pBlueBacHis2A (Invitrogen) via the EcoRI site. The recombinant TYK2 baculovirus produced was prepared for transfected into Sf9 insect cells.
as §2, §3, §4

JAK1 = target: T4, JAK1 (Homo sapiens, UniProt P23458); test: JAK1 kinase domain capture-based ELISA kinase assay
T4 construct: The kinase domain of humanJAK1 was amplified from U937mRNA; His tag (from pFastBac HTb vector; nickel chelate purification) (N); made in house; host or cells: baculovirus; virus made in Sf9, large-scale expression in High Five insect cells
T4 sequence (P23458 875-1153 limits assumed): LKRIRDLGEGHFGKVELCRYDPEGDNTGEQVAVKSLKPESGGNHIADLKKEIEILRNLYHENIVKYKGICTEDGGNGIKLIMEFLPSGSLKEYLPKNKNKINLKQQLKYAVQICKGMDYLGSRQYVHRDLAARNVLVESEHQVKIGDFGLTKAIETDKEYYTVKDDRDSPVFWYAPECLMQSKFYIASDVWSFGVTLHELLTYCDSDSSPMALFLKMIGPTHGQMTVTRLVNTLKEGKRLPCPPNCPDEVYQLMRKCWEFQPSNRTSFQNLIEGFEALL
Procedure: as §1
The kinase domain of humanJAK1 was amplified from U937mRNA using the polymerase chain reaction with the following primers: […]
JAK1 PCR products were cloned into the pFastBac HTb expression vector (Gibco) via the Xho I and Kpn I sites. The JAK1 plasmid was then transformed into competent DH10Bac cells (Gibco), and the recombinant baculovirus produced prepared for transfection into Sf9 insect cells.
as §2, §3, §4

SMILES	IC50 (JAK3) [µM]	IC50 (JAK2) [µM]	IC50 (TYK2) [µM]	IC50 (JAK1) [µM]
CCCC/C=C/c1cn2ccnc2c(NC2CCC(O)CC2)n1 (stereo not shown)	< 50	> 50	> 50	> 50
c1cncc(-c2cn3ccnc3c(NCCc3ccncc3)n2)c1	< 50	> 50	> 50	> 50
c1cncc(CCNc2nc(-c3ccco3)cn3ccnc23)c1	< 50	> 50	> 50	> 50
COc1ccc(Nc2nc(-c3c(C)cccc3C)cn3ccnc23)cn1	< 50	> 50	> 50	> 50
c1ccc(CN2CC[C@@H](Nc3nc(-c4ccc5c(c4)OCO5)cn4ccnc34)C2)cc1	> 50	> 50	< 50	> 50
Clc1ccccc1-c1cn2ccnc2c(Nc2ccc3[nH]ccc3c2)n1	> 50	< 50	< 50	< 50
CN(C)CCNC(=O)c1ccc(-c2cn3ccnc3c(Nc3ccc(C(=O)O)cc3)n2)cc1	< 50	< 50	< 50	< 50
CN(C)C(=O)COc1cccc(Nc2nc(-c3cccc(N)c3)cn3ccnc23)c1	< 50	< 50	< 50	< 50
CCCC/C=C/c1cn2ccnc2c(Nc2ccc(N(CC)CCO)cc2)n1	< 50	< 50	< 50	< 50
O=C(NCCO)c1ccc(-c2cn3ccnc3c(Nc3ccccc3)n2)cc1	> 50	< 50	< 50	< 50
COc1cc(-c2cn3ccnc3c(Nc3ccccc3)n2)cc(OC)c1OC	> 50	< 50	> 50	< 50
FC(F)(F)Oc1cccc(-c2cn3ccnc3c(Nc3ccccc3)n2)c1	> 50	< 50	> 50	> 50
c1ccc2cc(-c3cn4ccnc4c(Nc4ccc(N5CCOCC5)cc4)n3)ccc2c1	> 50	< 50	> 50	< 50
CN(C)CCNC(=O)c1cccc(-c2cn3ccnc3c(Nc3ccc(Cl)cc3)n2)c1	> 50	< 50	> 50	< 50
O=C(O)CCc1ccc(-c2cn3ccnc3c(NCCc3ccncc3)n2)cc1	< 50	> 50	> 50	> 50
Fc1ccccc1-c1cn2ccnc2c(NCCc2cccnc2)n1	< 50	< 50	> 50	< 50
CCNc1nc(-c2ccc(O)c(OC)c2)cn2ccnc12	< 50	< 50	> 50	< 50
O=C(O)CCc1ccc(-c2cn3ccnc3c(NCc3ccco3)n2)cc1	< 50	> 50	< 50	> 50
CC(=O)Nc1ccc(Nc2nc(-c3ccc4c(c3)OCO4)cn3ccnc23)cc1	< 50	< 50	< 50	< 50
Cc1ccc(S(=O)(=O)Nc2ccc(Nc3nc(-c4ccc(CCC(=O)O)cc4)cn4ccnc34)cc2)cc1	> 50	< 50	< 50	< 50
CCCNc1nc(-c2cccc(N)c2)cn2ccnc12	> 50	> 50	> 50	< 50
c1coc(-c2cn3ccnc3c(Nc3ccc(N4CCOCC4)cc3)n2)c1	> 50	< 50	< 50	< 50
